From patent US8604076B2, “Method for producing a pharmaceutical composition comprising rotigotine” (UCB Pharma GmbH, priority 2000, dated 2013)

Columns and labels:
[1] = aqueous solution (5% dextrose); cited from earlier work
[2] = monkeys, aqueous solution; cited from earlier work
[3] = release of N-0923 from the depots in the monkey, dose versus plasma level; format: in vivo, Cynomolgus monkeys; conditions: oily crystalline suspensions, FIG. 4, after 3 and 85 daily applications
Method: Cynomolgus monkeys were given daily subcutaneous bolus injections of oily N-0923 crystalline suspensions of the following composition: The application was performed daily in dosages of 0.25, 1 and 4 mg/kg. 2, 6 and 24 hours after the 3rd and 85th application plasma samples were taken and analyzed using LC-MS-MS.

[4] = release of N-0923 from the depot form, plasma level and bioavailability; format: in vivo; conditions: depot formulation according to the invention, read-out: bioavailability of the pharmaceutical composition according to the invention
Method: Sprague-Dawley rats were given subcutaneous bolus injections of an oily N-0923 crystalline suspension of the following composition:
6, 24 and 48 hours after the 2nd and 46th administration plasma samples were taken and the N-0923 concentration was analyzed using LC-MS-MS. The readings from 6 animals were averaged.
The test conditions were identical to those in implementation example 5 except that every 48 hours a dose of 12.5 mg N-0923 per kg body weight was applied.
Readings were taken 2, 4, 8, 24, 32 and 48 hours after the 22nd application and were quantified.

[5] = distinct first-pass effect; cited from earlier work

## CCCN(CCc1cccs1)[C@H]1CCc2c(O)cccc2C1 [N-0923, S(-)-2-(N-propyl-N-2-thienylethylamino)-5-hydroxytetralin]
[1]
  time for which the subcutaneous injection was effective: 60 to 70 min
[2]
  half-time value after intravenous injection: 52 min
[3]
  relation of active-agent plasma levels to the dose introduced in the body: largely linear relation
[4]
  bioavailability: > 70%
[5]
  bioavailability after oral administration: about 0.5%
